One data set concerns healthy subjects. As to the kind of experiment: Safety and tolerability in healthy subjects (Parts A, B, D). It is filed as in vivo, human. The procedure:
Part A will comprise a randomised, single-dose, single-sequence, placebo-controlled study. Eight healthy subjects will be studied in a single cohort (Group A1). Potential subjects will be screened to assess their eligibility to enter the study within 28 days prior to the first dose administration. Subjects will participate in 2 treatment periods. For each treatment period, subjects will reside at the Phase I clinical site from Days −1 to 3 (48 hours postdose). Subjects will return to the clinical site for outpatient visits on Days 4 and 5. There will be at least a 10-day washout between doses (from Period 1, Day 1 to Period 2, Day 1).
Six subjects will be randomised to receive 25 mg KL1333 and 2 subjects will be randomised to receive placebo, and subjects will receive the same treatment in both treatment periods. On Treatment Period 1, Day 1, subjects will receive a single oral dose of study drug following an overnight fast of at least 8 hours. On Treatment Period 2, Day 1, subjects will receive a single oral dose of study drug after consuming a standard high-fat breakfast. Following review of safety, tolerability, and PK data, up to 2 additional dose cohorts of healthy subjects may be added if needed to determine the study treatment for
Part B will comprise a randomised, multiple-dose, sequential-group, placebo-controlled study. Sixteen healthy subjects will be studied in 2 cohorts (Groups B1 and B2), with each cohort consisting of 8 subjects. Part B may start after completion of Group A1, at a dose equal to or less than given in Part A.
On Day 1, 6 subjects will be randomised to receive KL1333 and 2 subjects will be randomised to receive placebo. The preliminary planned doses of KL1333 for Groups B1 and B2 are 25 and 50 mg, respectively, once daily (QD) on Days 1 to 10. Dose levels, dose frequency, and dietary state will be confirmed following review of safety, tolerability, and PK data from Part A and ongoing data from Part B. Additionally, a dose selection conference meeting will be held before each cohort in Part B where blinded data from the previous cohort will be reviewed before a decision is made about proceeding to the next cohort. Following review of safety, tolerability, and PK data, up to 3 additional dose cohorts of healthy subjects may be added to further explore the PK, safety, and tolerability of KL1333. If additional cohorts are required, each cohort will consist of 8 subjects, with 6 subjects receiving KL1333 and 2 subjects receiving placebo. The dose level will not exceed 600 mg, and the predicted exposure following multiple daily dose administration in any subject in Part B will not exceed an AUC0-24 of 51,800 ng.h/mL for derived total KL1333. There will be a minimum of 6 days between dose escalations for each cohort (between the last dose of one cohort and the first dose of the next cohort). Subjects will return for a Follow-up visit on Day 15, 5 days after their final dose.
Part D will comprise a randomised, multiple-dose, placebo-controlled study. Sixteen healthy subjects will be studied in 2 cohorts (Groups D1 and D2), with each cohort consisting of 8 subjects. Part D will start after completion of Part B, and the Part D groups may be run in parallel.
On Day 1, 6 subjects will be randomised to receive KL1333 and 2 subjects will be randomised to receive placebo. The doses of KL1333 for Groups D1 and D2 are 75 mg twice daily (BID) and 50 mg 3 times daily (TID), respectively, on Days 1 to 10 with a single dose administration on Day 10.
The safety and tolerability of KL1333 in healthy volunteers was explored at multiple ascending doses in part B and D of the study. Part D specifically explored if tolerability was improved by dividing the daily dose into two and three administrations respectively. Cohorts B3, D1 and D2 all received total daily doses of 150 mg for 10 days. Cohort B3 received 150 mg once daily (QD), cohort D1 received 75 mg twice daily (BID), and cohort D2 50 mg three times daily (TID). […]

Data set [1] relates to patients with primary mitochondrial disease. Description: Safety and tolerability in patients with primary mitochondrial disease (Part C). It is filed as in vivo. To be noted: multiple oral QD doses of 50 mg for 10 days. From the text:
Part C will comprise a randomised, multiple-dose, single-group, placebo-controlled study. A total of 8 patients diagnosed with any mitochondrial disease will be enrolled in this part of the study. Part C may start after the dose selection conference has been completed for the final cohort of Part B, at a daily dose no higher than the highest well-tolerated dose in Part B.
Two patients will be initially dosed, with 1 patient receiving KL1333 and 1 patient receiving placebo. If there are no safety or tolerability concerns in these patients following the Day 4 visit, the remaining 6 patients, with 5 patients receiving KL1333 and 1 patient receiving placebo, will be enrolled on a rolling basis. In the event there are safety concerns following completion of the 2 sentinel patients without meeting stopping criteria, the Sponsor may add intermediate cohorts if the safety evaluation in intermediate cohorts will be needed. The dosing schedule of intermediate cohorts will be the same as that of the planned cohort. The schedule of safety assessments of intermediate cohorts will be the same as that of the planned cohort as a general rule. Whether or not to add safety assessments in the intermediate cohorts will be determined by the Sponsor.
It is planned for patients to receive study drug QD on Days 1 to 10. […]

Data set [2] shares this test system. Description: Daily Fatigue Impact Scale (D-FIS) in primary mitochondrial disease patients. It is filed as in vivo, human.

With `CC(C)c1nc2c([nH]1)C(=O)C(=O)c1ccccc1-2` [KL1333], in the data set with healthy subjects (150 mg daily for 10 days: 75 mg BID and 50 mg TID versus 150 mg QD), the “frequency and severity of loose stool episodes (Bristol Stool chart)” value is given as “improved”. The tolerability result is listed as “tolerated” in the data set with healthy subjects (QD doses of 150 mg, healthy subjects); “poorly tolerated” with healthy subjects (QD doses of 250 mg, healthy subjects, GI TEAEs); “well tolerated” in the data set with healthy subjects (QD doses of 25 to 75 mg, healthy subjects); “well tolerated” in the data set with healthy subjects (single oral doses of 25 mg with or without food, healthy subjects); “well tolerated” in data set [1]. Moreover, in the data set on healthy subjects (daily doses of 150 mg, healthy subjects, GI-related adverse events), the “tolerability of BID or TID versus QD dosing” value is listed as “better tolerated”. In the data set with healthy subjects (mean or individual subject data during the study), the “clinical chemistry, hematology, urinalysis data” value was “no apparent treatment- or dose-related trends”. The “vital signs, 12-lead ECGs, physical examinations” value with healthy subjects (whole study) is given as “no apparent treatment- or dose-related trends”. For the same molecule, the serious adverse events entry in the data set with healthy subjects (whole study: 64 healthy volunteers and 8 patients, KL1333 or placebo) is “no serious adverse events”. For the same molecule, the “Daily Fatigue Impact Scale, mean change” value in data set [2] (50 mg QD for 10 days, versus placebo, reduction of fatigue impacts on daily activities) is “greater improvement”. For the same molecule, in data set [2] (change from day-1 to day 10, Ctrough at day 10), the “correlation of DFIS change with Total KL1333 Ctrough” value is “statistically significant correlation”.
